Experimental findings from ChEMBL document CHEMBL1201862, “PubChem BioAssay data set” (2004) are described below.

As a reminder, the IC50 is the concentration that gives 50% inhibition. For orientation: AC50 means the concentration giving half of the maximal activity seen.

Assay [1] is described as follows: Luminescence-based cell-based high throughput dose response assay to identify activators of the DAF-12 from the parasite S. stercoralis (ssDAF-12). Format: functional.
In assay [2] the target is T1, Oxysterols receptor LXR-beta (Homo sapiens, UniProt P55055).
T1 sequence (P55055 whole entry): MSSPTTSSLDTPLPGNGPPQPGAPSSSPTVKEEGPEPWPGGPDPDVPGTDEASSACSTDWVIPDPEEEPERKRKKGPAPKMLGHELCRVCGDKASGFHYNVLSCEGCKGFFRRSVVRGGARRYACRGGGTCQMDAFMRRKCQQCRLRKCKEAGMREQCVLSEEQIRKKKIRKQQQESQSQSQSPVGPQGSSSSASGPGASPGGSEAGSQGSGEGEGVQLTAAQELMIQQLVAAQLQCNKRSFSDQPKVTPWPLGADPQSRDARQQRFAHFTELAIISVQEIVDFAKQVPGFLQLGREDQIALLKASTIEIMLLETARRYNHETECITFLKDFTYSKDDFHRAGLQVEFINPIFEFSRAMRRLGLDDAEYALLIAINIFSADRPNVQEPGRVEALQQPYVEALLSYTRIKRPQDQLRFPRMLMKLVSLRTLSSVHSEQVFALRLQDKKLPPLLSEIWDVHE
Put plainly: LXR agonists, Gal4 luciferase reporter, dose response, counter-screen for ssDAF-12 agonist project, cell-based, luminescence, HEK293, S. stercoralis campaign (AID 720737). Type of assay: functional. Particulars: read-out: IC50 (the source's name). For orientation: Reporter assays use an easily measured gene product as a stand-in for the process of interest.

The nature of assay [3]: cells.
For assay [4], the target named is T1, Oxysterols receptor LXR-beta. Type of assay: functional, cell-based.
The target in a further assay is T2, Caspase-6 (Homo sapiens, UniProt P55212).
T2 sequence (P55212 whole entry): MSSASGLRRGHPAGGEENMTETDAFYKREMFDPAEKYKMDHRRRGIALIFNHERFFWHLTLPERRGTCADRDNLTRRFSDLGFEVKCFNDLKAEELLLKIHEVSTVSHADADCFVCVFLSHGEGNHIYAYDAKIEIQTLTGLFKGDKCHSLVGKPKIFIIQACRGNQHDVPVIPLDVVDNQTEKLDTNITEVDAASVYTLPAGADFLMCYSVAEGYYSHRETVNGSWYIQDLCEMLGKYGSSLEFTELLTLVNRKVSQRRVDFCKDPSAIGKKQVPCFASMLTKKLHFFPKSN
The assay is described as follows: human caspase-6 inhibitors, dose response, biochemical, VEID-R110 fluorescence, cherry-pick (AID 720632).

The nature of assay [5]: CEM21 lymphoblast cell cytotoxicity, dose response, cytotoxicity control for viral fusion inhibitor project, CellTiter-Glo luminescence, cherry-picked (AID 652042).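 Further: potency for signal decrease meaning cytotoxicity.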 Format: functional, cell-based. (In general: ATP-based viability assays read luminescence as a measure of living cells.)
Assay [6] is described as follows: inhibitors of HIV Env-driven cell fusion, dose response, cherry-pick (AID 652057). Type of assay: functional, cell-based.
Assay [7] in a line: off-target signal loss in HeLa-CEM21 co-culture – HeLa F-luc CTL cells, cherry-picked, counter-screen for HIV-1 Env fusion inhibitor project, dose response (AID 652040).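 Further: potency for signal decrease marking cytotoxic or nonspecific inhibition.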 Format: functional, cell-based. Background: The purpose of a counterscreen is to sort out artefacts and off-target activity.
The nature of assay [8]: inhibitors of clade B AD8 Env fusion, dose response, cell-based, cherry-pick (AID 652062).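 Further: luciferase signal from cell-cell fusion driven by HIV-1 clade B AD8 Env; potency is for inhibitors of fusion seen as a drop in luminescence.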 Format: functional.
A short description of assay [9]: ZM109 Env clade C HIV-1 fusion inhibitors, dose response, HeLa effector, CEM target cells, luciferase, cherry-pick (AID 652058). Type of assay: functional, cell-based.
Assay [10] can be described thus: HepG2 cell cytotoxicity, dose response, cytotoxicity control for Shn3 inhibitor project, CellTiter-Glo, cherry-picked (AID 624134). Type of assay: functional, cell-based.
Assay [11] is described as follows: control 3'UTR Renilla luciferase suppression, dose response, counter-screen for Shn3 inhibitor project, cell-based, Clone20-Shn3RL, cherry-picked (AID 624133). Format: functional.
A short description of assay [12]: insulin promoter down-regulators in MIN6 cells, imaging, high-content screening, mouse beta cells (AID 1628). Format: functional.
The nature of assay [13]: Shn3 3'UTR reporter inhibitors, dose response, cell-based, Clone20 osteoblasts, firefly luciferase, cherry-picked (AID 624132).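 Further: firefly luciferase luminescence from reporter carrying the Shn3 3'UTR in osteoblasts.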 Type of assay: functional.
Assay [14] is described as follows: reduction of Shn3 3'UTR firefly luciferase signal, dose response, Schnurri-3 inhibitor project, cell-based, Clone20 osteoblasts, cherry-pick, set 2 (AID 720490).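 Further: actives lower the luminescence signal as inhibitors.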 Type of assay: functional.
Assay [15] is described as follows: cytotoxicity in MIN6 insulinoma cells, dose response, cytotoxicity control, cell-based, mouse insulinoma (AID 2122).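 Further: confirmatory high-throughput counterscreen run to flag cytotoxic compounds; mouse MIN-6 beta cells carrying an insulin promoter eGFP reporter.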 Type of assay: functional.
Assay [16] is described as follows: ADAM10 protease inhibitors, dose response, selectivity assay for ADAM17 exosite inhibitor project, biochemical, FRET peptide substrate, recombinant human ADAM10 (AID 743259).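 Further: ADAM10 enzyme cleaving a FRET peptide substrate.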
Assay [17] has as its target Disintegrin and metalloproteinase domain-containing protein 17 (Homo sapiens, UniProt P78536). The assay is described as follows: exosite inhibitors of ADAM17, dose response, biochemical (AID 743260).
Assay [18] is described as follows: cytotoxicity in KRAS-transformed pancreatic duct cells, primary screen, cell-based, fluorescence, HTS (AID 431).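 Further: cell line used: HPDE-C7K.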 Type of assay: functional. The conditions noted are these: Homo sapiens.
A short description of assay [19]: cytotoxicity in HPDE-C7 cells, cell-based, fluorescence, HTS (AID 430). Type of assay: functional. Particulars: Homo sapiens.
Assay [20] can be described thus: cells. Format: functional, cell-based.
Assay [21] in a line: cells. Format: functional, cell-based. This is another data set of the same source.

The source made the active and inactive calls.

Chain of Disintegrin and metalloproteinase domain-containing protein 17 (P78536 whole entry, the tested form may be a part): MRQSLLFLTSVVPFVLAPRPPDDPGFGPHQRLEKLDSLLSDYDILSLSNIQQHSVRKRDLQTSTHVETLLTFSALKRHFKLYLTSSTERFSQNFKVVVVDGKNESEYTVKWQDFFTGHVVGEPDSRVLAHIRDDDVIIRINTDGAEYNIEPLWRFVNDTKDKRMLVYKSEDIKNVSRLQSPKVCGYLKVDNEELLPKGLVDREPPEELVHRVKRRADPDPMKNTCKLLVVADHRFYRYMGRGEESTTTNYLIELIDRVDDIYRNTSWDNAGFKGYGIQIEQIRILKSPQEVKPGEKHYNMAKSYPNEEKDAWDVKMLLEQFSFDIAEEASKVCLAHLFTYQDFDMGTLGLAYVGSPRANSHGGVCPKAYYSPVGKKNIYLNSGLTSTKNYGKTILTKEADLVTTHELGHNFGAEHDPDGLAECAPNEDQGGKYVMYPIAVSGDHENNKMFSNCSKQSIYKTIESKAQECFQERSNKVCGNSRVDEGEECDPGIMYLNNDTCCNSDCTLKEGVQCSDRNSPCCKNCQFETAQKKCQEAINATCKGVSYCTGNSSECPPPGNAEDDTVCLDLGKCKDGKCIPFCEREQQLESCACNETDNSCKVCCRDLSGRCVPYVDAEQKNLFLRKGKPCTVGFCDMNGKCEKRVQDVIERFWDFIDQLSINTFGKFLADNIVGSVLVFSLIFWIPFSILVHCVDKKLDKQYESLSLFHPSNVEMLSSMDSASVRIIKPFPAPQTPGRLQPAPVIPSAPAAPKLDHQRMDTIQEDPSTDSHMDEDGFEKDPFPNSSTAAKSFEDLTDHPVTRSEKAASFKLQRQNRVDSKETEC

Take `O=C(Nc1ccc2c(c1)OCCO2)Nc1ccc2c(c1)OCO2`: the IC50 in assay [1] is > 67.6 µM (inactive). For the same compound, the EC50 in assay [2] was > 67.6 µM (inactive).
`COc1ccccc1-c1nc(-c2ccc(Br)o2)no1`: the EC50 (in “cells [3]”; in assay [4]; in assay [2]) was > 67.5 µM (inactive) in each case. In addition, in assay [1], the IC50 is > 67.5 µM (inactive).
For `COc1ccc(CCN2CC(C(=O)NCCc3ccc(C)cc3)CC2=O)cc1OC` (stereo not drawn), the AC50 on Caspase-6 was 20.1 µM (active).
For `O=C(c1cccc(C(F)(F)F)c1)N1CCc2c([nH]c3ccccc23)C1C(F)(F)F` (stereo not drawn), the AC50 in [5] was 50.8 µM (active); in assay [6], 5.55 µM (active); in [7], 1.88 µM (active); in [8], 1.19 µM (active); in assay [9], 0.66 µM (active).
Consider `CCN(CC)c1ccc(NC(=O)CN2C(=O)CSc3ncccc32)c(C)c1`, for which the AC50 is 31.9 µM (active) in assay [10], 10.2 µM (active) in assay [11], 1.78 µM (active) in assay [13] and 2.17 µM (active) in [14]. The IC50 was 1.33 µM (active) in assay [12] and 0.713 µM (active) in assay [15].
`CCOC(=O)c1ccc(NC(=O)C2CCCN(S(=O)(=O)c3ccc(F)cc3)C2)cc1` (stereo not drawn): the figures for the IC50 in assay [16] and in assay [17] were > 7.72 µM (active) and > 69.5 µM (inactive), respectively.
In the case of `COc1ccc2c(=O)c(-c3nc(C)cs3)coc2c1`, the EC50 (in the assay “cells [3]”; in assay [4]) was > 67.5 µM (inactive) each time.
With `Cc1ccc2nc(-c3ccccc3)cc(O)c2c1`, the EC50 was 1.14 µM (active) in [18], 0.91 µM (active) in [19] and > 67.5 µM (inactive) in assay [2]. In addition, the IC50 in assay [1] was > 67.5 µM (inactive).
Take `O=C(c1nc2ccccn2c1CNCC1OCCc2ccccc21)N1CCOCC1` (stereo not drawn): the EC50 in “cells [20]” was > 29.9 µM (inactive). Besides, the IC50 in the assay “cells [21]” is > 29.9 µM (inactive).
